Here are results for 24 compounds from patent publication US10906890B2, “Triazole phenyl compounds as agonists of the APJ receptor” (AMGEN INC., priority 2016, dated 2021).

By EC50 is commonly meant the concentration giving half of the maximal effect.

Molecules are shown by their SMILES.

The assay concerns the target human APJ receptor (Homo sapiens (Human), UniProt P35414). As to the kind of experiment: [35S]GTPγS binding assay on membranes from CHO cells stably expressing human APJ receptor. In kind it is biochemical. The conditions noted are these: means of several independent experiments, read-out: Activity hAPJ SPA EC50 IP. As for the experimental part:
The human APJ receptor was cloned by polymerase chain reaction and the gene encoding the receptor was subcloned in pFLAG-CMV™-3 expression vector (Sigma, Saint Louis, Mo. USA) in-house at Amgen. A GTPγS binding assay was performed on membranes prepared from CHO cells stably expressing human APJ receptor. The optimum experimental conditions for the concentrations of GDP, MgCl2, and NaCl in the assay buffer were initially determined. […] Incubation was at RT for 90 min and the microplate was read using a ViewLux™ ultra HTS Microplate Imager (PerkinElmer, Inc.). All the results presented are means of several independent experiments and analyzed by non-linear regression methods using the commercially available program Prism (GraphPad, San Diego, Calif.) providing the EC50 values detailed in Table 28.

human APJ receptor, sequence (P35414 whole entry): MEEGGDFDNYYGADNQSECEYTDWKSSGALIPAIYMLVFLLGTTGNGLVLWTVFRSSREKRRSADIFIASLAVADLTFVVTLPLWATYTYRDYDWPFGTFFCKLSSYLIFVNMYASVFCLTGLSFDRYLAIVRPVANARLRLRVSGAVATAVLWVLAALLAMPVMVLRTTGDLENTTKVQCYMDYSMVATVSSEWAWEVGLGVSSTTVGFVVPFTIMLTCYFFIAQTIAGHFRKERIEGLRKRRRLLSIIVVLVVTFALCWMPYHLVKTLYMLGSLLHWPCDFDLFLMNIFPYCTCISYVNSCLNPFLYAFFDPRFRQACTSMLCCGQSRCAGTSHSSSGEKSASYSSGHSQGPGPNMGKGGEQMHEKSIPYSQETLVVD

As for `COc1ncnc(OC)c1-n1c(NS(=O)(=O)CCc2ccc(Cl)cc2)nnc1-c1ccccc1` [Example 19.0, 2-(4-chlorophenyl)-N-(4-(4,6-dimethoxy-5-pyrimidinyl)-5-phenyl-4H-1,2,4-triazol-3-yl)ethanesulfonamide], the EC50 amounted to 40 nM.
Consider `COc1cccc(OC)c1-n1c(NS(=O)(=O)[C@@H](C)[C@H](C)c2cnc(C)cn2)nnc1-c1ccccc1` [Example 25.0, (2S,3R)-N-(4-(2,6-dimethoxyphenyl)-5-phenyl-4H-1,2,4-triazol-3-yl)-3-(5-methyl-2-pyrazinyl)-2-butanesulfonamide], for which the concentration for a half-maximal effect (EC50) amounted to 1.3 nM.
Consider `COc1cccc(OC)c1-n1c(NS(=O)(=O)[C@@H](C)[C@H](OC)c2ncc(C)cn2)nnc1-c1ccccc1F` [Example 67.0, (1R,2S)-N-(4-(2,6-dimethoxyphenyl)-5-(2-fluorophenyl)-4H-1,2,4-triazol-3-yl)-1-methoxy-1-(5-methyl-2-pyrimidinyl)-2-propanesulfonamide], for which the concentration for a half-maximal effect (EC50) came to 5.9 nM.
The same measure for `C[C@H](c1ncc(C#N)cn1)[C@H](C)S(=O)(=O)Nc1nnc(-c2ccccc2)n1-c1c(F)cccc1F` [Example 47.0, (2S,3R)-3-(5-cyano-2-pyrimidinyl)-N-(4-(2,6-difluorophenyl)-5-phenyl-4H-1,2,4-triazol-3-yl)-2-butanesulfonamide]: 48 nM; for `COc1cccc(OC)c1-n1c(NS(=O)(=O)[C@@H](C)[C@H](OC)c2ncc(C)cn2)nnc1-c1cccc(Cl)c1` [Example 87.0, (1R,2S)-N-(5-(3-chlorophenyl)-4-(2,6-dimethoxyphenyl)-4H-1,2,4-triazol-3-yl)-1-methoxy-1-(5-methyl-2-pyrimidinyl)-2-propanesulfonamide]: 0.56 nM; for `COc1cccc(-c2nnc(NS(=O)(=O)[C@@H](C)[C@H](OC)c3ncc(C)cn3)n2-c2c(OC)ncnc2OC)c1` [Example 6.0, (1R,2S)-N-(4-(4,6-dimethoxy-5-pyrimidinyl)-5-(3-methoxyphenyl)-4H-1,2,4-triazol-3-yl)-1-methoxy-1-(5-methyl-2-pyrimidinyl)-2-propanesulfonamide]: 6.8 nM.
Regarding `COc1cccc(OC)c1-n1c(NS(=O)(=O)[C@@H](C)[C@H](OC)c2ncc(C)cn2)nnc1-c1cccc([C@](C)(O)C(F)(F)F)c1` (mixture of isomers) [Example 88.0, (1R,2S)—N-(4-(2,6-Dimethoxyphenyl)-5-(3-((1S)-2,2,2-trifluoro-1-hydroxy-1-methylethyl)phenyl)-4H-1,2,4-triazol-3-yl)-1-methoxy-1-(5-methyl-2-pyrimidinyl)-2-propanesulfonamide and (1R,2S)—N-(4-(2,6-dimethoxyphenyl)-5-(3-((1R)-2,2,2-trifluoro-1-hydroxy-1-methylethyl)phenyl)-4H-1,2,4-triazol-3-yl)-1-methoxy-1-(5-methyl-2-pyrimidinyl)-2-propanesulfonamide], the EC50 was 23 nM.
To `COc1ncnc(OC)c1-n1c(NS(=O)(=O)[C@@H](C)[C@H](O)c2ncc(C)cn2)nnc1-c1ccccc1` [Example 20.0, (1R,2S)-N-(4-(4,6-dimethoxy-5-pyrimidinyl)-5-phenyl-4H-1,2,4-triazol-3-yl)-1-hydroxy-1-(5-methyl-2-pyrimidinyl)-2-propanesulfonamide] belongs 5.3 nM.
As to `COc1cccc(OC)c1-n1c(NS(=O)(=O)[C@@H](C)[C@H](OC)c2ncc(C)cn2)nnc1-c1cccc2ncccc12` [Example 90.0], the concentration for a half-maximal effect (EC50) was determined as 540 nM.
For `COc1cccc(OC)c1-n1c(NS(=O)(=O)[C@H]2C[C@@H](OC(C)C)CN(c3ncc(F)cn3)C2)nnc1-c1ccccc1` (single isomer, unassigned) [Example 59.0, (3R,5S)-N-(4-(2,6-dimethoxyphenyl)-5-phenyl-4H-1,2,4-triazol-3-yl)-1-(5-fluoro-2-pyrimidinyl)-5-(1-methylethoxy)-3-piperidinesulfonamide or (3S,5R)-N-(4-(2,6-dimethoxyphenyl)-5-phenyl-4H-1,2,4-triazol-3-yl)-1-(5-fluoro-2-pyrimidinyl)-5-(1-methylethoxy)-3-piperidinesulfonamide], the EC50 is 86 nM.
For `COc1ncnc(OC)c1-n1c(NS(=O)(=O)[C@@H](C)Cc2ncc(F)cn2)nnc1-c1ccccc1` (single isomer, unassigned) [Example 11.0, (2S)-N-(4-(4,6-dimethoxy-5-pyrimidinyl)-5-phenyl-4H-1,2,4-triazol-3-yl)-1-(5-fluoro-2-pyrimidinyl)-2-propanesulfonamide or (2R)-N-(4-(4,6-dimethoxy-5-pyrimidinyl)-5-phenyl-4H-1,2,4-triazol-3-yl)-1-(5-fluoro-2-pyrimidinyl)-2-propanesulfonamide], the 50% effective concentration (EC50) is 6.4 nM.
The same measure for `COCC1(n2c(NS(=O)(=O)[C@@H](C)[C@H](OC)c3ncc(Cl)cn3)nnc2-c2cccc3nn(C)cc23)CCC1` [Example 117.0]: 340 nM; for `COc1ccnc(OC)c1-n1c(NS(=O)(=O)[C@@H](C)[C@H](OC)c2ncc(C)cn2)nnc1-c1ccccc1` (single isomer, unassigned) [Example 23.0, (1R,2S,P)-N-(4-(2,4-dimethoxy-3-pyridinyl)-5-phenyl-4H-1,2,4-triazol-3-yl)-1-methoxy-1-(5-methyl-2-pyrimidinyl)-2-propanesulfonamide or (1R,2S,M)-N-(4-(2,4-dimethoxy-3-pyridinyl)-5-phenyl-4H-1,2,4-triazol-3-yl)-1-methoxy-1-(5-methyl-2-pyrimidinyl)-2-propanesulfonamide]: 5.9 nM; for `COc1ccnc(OC)c1-n1c(NS(=O)(=O)[C@@H](C)[C@H](C)c2cnc(C)cn2)nnc1-c1ccccc1` (single isomer, unassigned) [Example 54.0, (2S,3R,P)-N-(4-(2,4-dimethoxy-3-pyridinyl)-5-phenyl-4H-1,2,4-triazol-3-yl)-3-(5-methyl-2-pyrazinyl)-2-butanesulfonamide or (2S,3R,M)-N-(4-(2,4-dimethoxy-3-pyridinyl)-5-phenyl-4H-1,2,4-triazol-3-yl)-3-(5-methyl-2-pyrazinyl)-2-butanesulfonamide]: 14 nM.
To `COc1ncnc(OC)c1-n1c(NS(=O)(=O)[C@@H](C)[C@H](OC)c2ncc(Cl)cn2)nnc1-c1cccc2cn(C)nc12` [Example 94.0] belongs 2.9 nM.
The same measure for `COc1cccc(OC)c1-n1c(NS(=O)(=O)[C@@H](C)[C@H](OC)c2ncc(Cl)cn2)nnc1-c1cccc2cn(C)nc12` [Example 91.0]: 2 nM; for `COc1cccc(OC)c1-n1c(NS(=O)(=O)[C@@H](C)[C@H](OC)c2ncc(C)cn2)nnc1-c1ccc(Cl)cc1Cl` [Example 71.0, (1R,2S)-N-(5-(2,4-dichlorophenyl)-4-(2,6-dimethoxyphenyl)-4H-1,2,4-triazol-3-yl)-1-methoxy-1-(5-methyl-2-pyrimidinyl)-2-propanesulfonamide]: 160 nM.
For the compound `COc1ncnc(OC)c1-n1c(NS(=O)(=O)[C@@H](C)[C@@H](OC(C)C)c2ncc(C)cn2)nnc1-c1ccccc1` [Example 14.0, (1S,2S)-N-(4-(4,6-dimethoxy-5-pyrimidinyl)-5-phenyl-4H-1,2,4-triazol-3-yl)-1-(1-methylethoxy)-1-(5-methyl-2-pyrimidinyl)-2-propanesulfonamide], the EC50 amounted to 0.55 nM.
As to `COc1ccnc(OC)c1-n1c(NS(=O)(=O)[C@@H](C)[C@H](C)c2cnc(C)cn2)nnc1-c1ccccc1` (single isomer, unassigned) [Example 55.0, (2S,3R,P)-N-(4-(2,4-dimethoxy-3-pyridinyl)-5-phenyl-4H-1,2,4-triazol-3-yl)-3-(5-methyl-2-pyrazinyl)-2-butanesulfonamide or (2S,3R,M)-N-(4-(2,4-dimethoxy-3-pyridinyl)-5-phenyl-4H-1,2,4-triazol-3-yl)-3-(5-methyl-2-pyrazinyl)-2-butanesulfonamide], the EC50 was found to be 0.33 nM.
Take `COc1cccc(OC)c1-n1c(NS(=O)(=O)[C@@H](C)[C@H](OC)c2ncc(C)cn2)nnc1-c1ccc2c(c1)CCO2` [Example 80.0, (1R,2S)-N-(5-(2,3-dihydro-1-benzofuran-5-yl)-4-(2,6-dimethoxyphenyl)-4H-1,2,4-triazol-3-yl)-1-methoxy-1-(5-methyl-2-pyrimidinyl)-2-propanesulfonamide]: the EC50 is 3.5 nM.
In the case of `COc1ncnc(OC)c1-n1c(NS(=O)(=O)[C@H]2CCCN(c3ncc(C)cn3)C2)nnc1-c1ccccc1` (single isomer, unassigned) [Example 30.0, (S)—N-(4-(4,6-Dimethoxypyrimidin-5-yl)-5-phenyl-4H-1,2,4-triazol-3-yl)-1-(5-methylpyrimidin-2-yl)piperidine-3-sulfonamide or (R)—N-(4-(4,6-dimethoxypyrimidin-5-yl)-5-phenyl-4H-1,2,4-triazol-3-yl)-1-(5-methylpyrimidin-2-yl)piperidine-3-sulfonamide], the half-maximal effective concentration (EC50) came out at 100 nM.
Turning to `COc1cccc(OC)c1-n1c(NS(=O)(=O)[C@@H](C)[C@H](OC)c2ncc(C)cn2)nnc1-c1ccc2nc(N)sc2c1` [Example 74.0, (1R,2S)-N-(5-(2-amino-1,3-benzothiazol-6-yl)-4-(2,6-dimethoxyphenyl)-4H-1,2,4-triazol-3-yl)-1-methoxy-1-(5-methyl-2-pyrimidinyl)-2-propanesulfonamide], the concentration for a half-maximal effect (EC50) turned out to be 140 nM.
With `COc1cccc(-c2nnc(NS(=O)(=O)[C@@H](C)[C@H](OC)c3ncc(Cl)cn3)n2[C@H]2CCCOC2)c1` [Example 119.0], the EC50 was 22 nM.
For `COc1ncnc(OC)c1-n1c(NS(=O)(=O)[C@@H](C)[C@H](OC)c2ncc(C)cn2)nnc1-c1cccc(Cl)c1` [Example 3.0, (1R,25)-N-(5-(3-chlorophenyl)-4-(4,6-dimethoxypyrimidin-5-yl)-4H-1,2,4-triazol-3-yl)-1-methoxy-1-(5-methylpyrimidin-2-yl)propane-2-sulfonamide], the EC50 is 5.3 nM.
